Data: ChEMBL document CHEMBL2331467, “Fungal transformation of cedryl acetate and α-glucosidase inhibition assay, quantum mechanical calculations and molecular docking studies of its metabolites” (Eur J Med Chem, 2013)

Target: Alpha-glucosidase MAL62 (Saccharomyces cerevisiae, UniProt P07265)
Experiment: Inhibition of yeast alpha-glucosidase using para-nitrophenyl alpha-D-glucopyranoside as substrate by spectrophotometric analysis; call rule not given here

Sequence of Alpha-glucosidase MAL62 (P07265 whole entry): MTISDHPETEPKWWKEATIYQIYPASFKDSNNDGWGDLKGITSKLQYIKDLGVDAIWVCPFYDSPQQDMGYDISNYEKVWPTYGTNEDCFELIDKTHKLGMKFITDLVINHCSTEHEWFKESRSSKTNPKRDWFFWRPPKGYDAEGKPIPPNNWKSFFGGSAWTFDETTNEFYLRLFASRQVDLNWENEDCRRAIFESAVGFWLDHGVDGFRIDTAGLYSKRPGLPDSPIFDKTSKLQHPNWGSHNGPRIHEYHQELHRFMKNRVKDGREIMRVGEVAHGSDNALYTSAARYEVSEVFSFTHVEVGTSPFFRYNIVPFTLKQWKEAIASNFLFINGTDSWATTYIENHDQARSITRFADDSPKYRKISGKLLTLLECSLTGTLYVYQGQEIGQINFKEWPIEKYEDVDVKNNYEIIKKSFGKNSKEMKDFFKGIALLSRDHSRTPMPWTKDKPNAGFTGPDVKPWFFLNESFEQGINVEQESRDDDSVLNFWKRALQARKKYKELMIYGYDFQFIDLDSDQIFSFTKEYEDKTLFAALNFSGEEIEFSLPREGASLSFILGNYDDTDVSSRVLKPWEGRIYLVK

| SMILES | IC50 |
| --- | --- |
| CC(=O)O[C@]1(C)C[C@H](O)[C@@]23C[C@H]1C(C)(C)[C@@H]2C[C@H](O)[C@H]3C | Not Active |
| CC(=O)O[C@]1(C)C[C@H](O)[C@@]23C[C@H]1C(C)(C)[C@@H]2CC[C@]3(C)O | 690 µM |
| OC[C@H]1NC[C@H](O)[C@@H](O)[C@@H]1O [DUVOGLUSTAT] | 426 µM |

The remaining lines, values ahead:

| IC50 | SMILES |
| --- | --- |
| 130 µM | C[C@@H]1CC[C@H]2C(C)(C)[C@H]3C[C@@]12CC[C@@]3(C)O [CEDROL] |
| 94 µM | CC(=O)O[C@]1(C)CC[C@@]23C[C@H]1C(C)(C)[C@@H]2CC[C@H]3C [CEDRYL ACETATE] |
